The record followed here is patent US11752147B2, “Pharmaceutical composition for the treatment of pain” (AZIENDE CHIMICHE RIUNITE ANGELINI FRANCESCO A.C.R.A.F. …, priority 2015, dated 2023).

Assay [1] deals with acetic acid-induced writhing in mice. The assay can be described thus: Acetic acid-induced writhing test in mice. The following applies: vs vehicle. For orientation: An intraperitoneal irritant provokes the stretching counted in writhing tests.
Procedure: (§1) The test compounds were evaluated in the model of acetic acid-induced writhing in mice (Stock J. L. et al., J. Clin. Inv. 2001, 107: 325 331).
(§2) Writhing test is a chemical method used to induce pain of peripheral origin by injection of acetic acid in mice. Analgesic activity is inferred from decrease in the frequency of writhing.
(§3) This test allowed evaluation of the antinociceptive activity of the compounds of the invention in a model of inflammatory pain.
(§4) Writhing is defined as a stretch, tension to one side, extension of hind legs, contraction of the abdomen so that the abdomen of mice touches the floor, turning the trunk (twist).
(§5) Male CD-1 mice weighing 20-25 g were used for the test.
(§6) One hour after the treatment, an intraperitoneal injection of acetic acid (0.7% v/v in physiological saline, 16 μl/g of body weight) was given to the mice to induce inflammatory pain and to check the effects of the test compound on the nociceptive response.
(§7) Five minutes after the administration of acetic acid and for the following 10 minutes the number of writhes was measured, which represents the parameter for evaluation of the nociceptive response. The analgesic activity is evaluated as % inhibition.
The test system of assay [2] is allodynia induced by ligature of the sciatic nerve in rats. The assay can be described thus: Ligature of the sciatic nerve in rats (allodynia, von Frey). The class given is in vivo. The following applies: one hour after administration, vs vehicle. On the procedure: Male CD rats weighing 200-250 g on arrival were used.
The allodynia was induced by ligature under anaesthesia of the sciatic nerve of the left hind leg [Seltzer Z, Dubner R, Shir Y. A novel behavioural model of neuropathic pain disorders produced in rats by partial sciatic nerve injury. Pain 1990; 43: 205-218; Bennet G J, Xie Y K. A peripheral mononeuropathy in rat that produces disorders of pain sensation like those seen in man. Pain 1988; 33: 87-107].
The pain threshold was measured with a von Frey machine, which makes it possible, by applying a gradual increase in pressure to the paw of the left hind leg of the rat, to record the nociceptive response, expressed in grams, corresponding to the moment at which the animal withdraws the leg.
After-treatment measurement was made at one hour following administration. The analgesic activity is evaluated as % reversal.

The subject of assay [3] is acetic acid-induced writhing in mice. The following applies: mouse, in vivo, po.
Procedure: as §1, §2, §3, §4, §5, §6, §7

Take `NCC1(CC(=O)O)CCCCC1` [Gabapentin, gabapentin]: the “Writhing number reduction %” value in assay [1] (Table 2 TEST 1 (FIG. 2a), 1.5 mg/kg oral) amounted to 27.1%; in assay [1] (Table 2 TEST 2 (FIG. 2b), 5 mg/kg oral), 38.1%; in assay [1] (Table 2 TEST 3 (FIG. 2c), 15 mg/kg oral), 45.9%; in assay [1] (Table 3 TEST 1 RATIO 1:20, 1.5 mg/kg oral), 29.2%; in assay [1] (Table 3 TEST 2 RATIO 1:10, 1.5 mg/kg oral) it was 27.1%; in assay [1] (Table 3 TEST 3 RATIO 1:5, 0.75 mg/kg oral), 22.4%. For the same compound, the “Writhing number reduction %” value in assay [1] (Table 3 TEST 4 RATIO 1:1, 0.15 mg/kg gabapentin oral) worked out at 28.3%; in assay [1] (Table 3 TEST 5 RATIO 5:1, 0.15 mg/kg oral), 30.2%; in assay [1] (Table 3 TEST 6 RATIO 10:1, 0.15 mg/kg oral), 27.2%. For the same compound, the Reversal % in assay [2] (3.0 mg/kg) came to 3.7%; in assay [2] (100 mg/kg (effective amount)) it was 37.0%.
On to `O=c1n(CCCN2CCN(c3cccc(Cl)c3)CC2)nc2ccccn12` [Trazodone, trazodone], for which the “Writhing number reduction %” value came to 16.0% in assay [1] (Table 2 TEST 1 (FIG. 2a), 0.15 mg/kg oral); 44.4% in assay [1] (Table 2 TEST 2 (FIG. 2b), 0.5 mg/kg oral); 57.1% in assay [1] (Table 2 TEST 3 (FIG. 2c), 1.5 mg/kg oral); 2.1% in assay [1] (Table 3 TEST 1 RATIO 1:20, 0.075 mg/kg oral); 16.0% in assay [1] (Table 3 TEST 2 RATIO 1:10, 0.15 mg/kg oral); 16.3% in assay [1] (Table 3 TEST 3 RATIO 1:5, 0.15 mg/kg oral). In addition, the “Writhing number reduction %” value in assay [1] (Table 3 TEST 4 RATIO 1:1, 0.15 mg/kg trazodone oral) was 12.2%; in assay [1] (Table 3 TEST 5 RATIO 5:1, 0.75 mg/kg oral), 57.4%; in assay [1] (Table 3 TEST 6 RATIO 10:1, 1.5 mg/kg oral), 59.7%. The 50% effect level in assay [3] (ED50) was put at a dose of 1.2 mg/kg. The Reversal % in assay [2] (0.3 mg/kg) was found to be 3.1%.
